“Also recorded” adds a separate entry of the source. Like-named read-outs stand apart in the source and are kept apart here.
What was measured:
[1] = tested on: transgenic C. elegans expressing human mutant alpha-1-antitrypsin gene fused to GFP; test: High-throughput phenotypic drug screen and dose response in the C. elegans model of ATD (mutant AT accumulation); assay type: in vivo; conditions: for reduction of mutant AT accumulation: 8-point dose response curves, FIG. 4B, 5, 11; for hit in high-throughput screening campaign: C. elegans model of ATD, FIG. 4A
[2] = tested on: mutant AT protein accumulation in liver; assay type: in vivo, mouse; conditions: vs control (CTR)
[3] = tested on: autophagy pathway (LC3, p62); test: Autophagy markers (LC3-II/I, p62) following fluphenazine treatment; assay type: in vivo; conditions: for autophagic flux: liver
[4] = following fluphenazine treatment

Row | Compound | reduction of mutant AT accumulation [1] | hit in high-throughput screening campaign [1] | further results
1 | FC(F)(F)c1ccc(SCCCN2CCN(c3cccc(Cl)c3)CC2)nc1 [AW00794, Piperazine, 1-(3-chlorophenyl)-4-[3-[[5-(trifluoromethyl)-2-pyridinyl]thio]propyl]-] | reduce mutant AT protein accumulation; also recorded: reduces AT accumulation |  | 
2 | OC(CNCc1ccc(Cl)cc1)CSc1ccccc1 (stereo not drawn) [RDR 03172] | reduce mutant AT protein accumulation; also recorded: reducing AT accumulations in a dose-dependent manner |  | 
3 | OCCN1CCN(CCCN2c3ccccc3Sc3ccc(C(F)(F)F)cc32)CC1 [fluphenazine] | dose-dependent reduction of mutant AT; also recorded: reduce mutant AT accumulation in a dose-dependent manner | hit compounds | reduction of mutant AT accumulation ([1]; listed as Fluphenazine): reduce misfolded AT protein accumulation in a dose and time-dependent manner; Sirius red staining (collagen deposition, liver fibrosis) ([2]; mouse liver sections): significantly reduced; accumulation of mutant AT protein (purple dots) in liver sections ([2]; transgenic mouse model of ATD): significantly reduced accumulation of mutant AT protein; percent area of purple dots (quantification of AT accumulations) ([2]; transgenic mouse model of ATD): significantly reduced; accumulation of mutant AT protein (purple dots) in liver sections ([2]; transgenic mouse model of ATD, listed as Fluphenazine): reduces mutant AT accumulation; LC3-II/I ratio [3, 4]: increase; p62 [3, 4]: reduction; autophagic flux [3]: enhancing autophagic flux; autophagic flux ([3]; listed as Fluphenazine): enhances autophagic flux
4 | OCCN1CCN(CCCN2c3ccccc3Sc3ccc(Cl)cc32)CC1 [perphenazine] | reduce mutant AT accumulation in a dose-dependent manner | hit compounds | 
5 | CN1CCN(CCCN2c3ccccc3Sc3ccc(Cl)cc32)CC1 [prochlorperazine] | reduce mutant AT accumulation in a dose-dependent manner | hit compounds | 
6 | CCSc1ccc2c(c1)N(CCCN1CCN(C)CC1)c1ccccc1S2 [thiethylperazine] | reduce mutant AT accumulation in a dose-dependent manner |  | 
7 | CSc1ccc2c(c1)N(CCC1CCCCN1C)c1ccccc1S2 (stereo not drawn) [thioridazine] | reduce mutant AT accumulation in a dose-dependent manner |  | 
8 | CN1CCN(CCCN2c3ccccc3Sc3ccc(C(F)(F)F)cc32)CC1 [trifluoperazine] | reduce mutant AT accumulation in a dose-dependent manner | hit compounds | 

From patent US11931366B2, “Compositions and methods of use thereof for treatment of proteinopathies” (priority 2018, dated 2024)
